{"source": "patent US10537570B2", "about": "“Use of pimobendan for the reduction of heart size and/or the delay of onset of clinical symptoms in patients with asymptomatic heart failure due to mitral valve disease” (priority 2016, dated 2020)", "key": {"[1]": {"test_system": "dogs suffering from asymptomatic (occult, preclinical) heart failure due to mitral valve disease (MVD)", "assay": "Interim analysis: pimobendan vs placebo in dogs with asymptomatic heart failure due to MVD", "format": "in vivo"}, "[2]": {"test_system": "dogs with MMVD and echocardiographic and radiographic evidence of cardiomegaly", "conditions": "dog, in vivo"}, "[3]": {"test_system": "dogs with asymptomatic mitral valve disease", "conditions": "after addition of pimobendan to ACE inhibitor treatment; Ouellet M et al. 2009; cited from earlier work"}, "[4]": {"test_system": "dogs", "conditions": "two dogs; long-term (chronic) clinical therapy; Tissier R et al. 2005; cited from earlier work"}, "[5]": {"test_system": "dogs with MMVD and echocardiographic and radiographic evidence of cardiomegaly", "assay": "Blinded, placebo controlled study of 360 dogs (preliminary analysis of final results)"}}, "data": [{"smiles": "COc1ccc(-c2nc3ccc(C4=NNC(=O)CC4C)cc3[nH]2)cc1", "note": "(stereo not shown) [pimobendan, 4,5-dihydro-6-[2-(4-methoxyphenyl)-1H-benzimidazol-5-yl]-5-methyl-3(2H)-pyridazinone]", "values": [{"measurement": "extension of survival time (all-cause mortality) compared to placebo", "setting": "[1]; also printed as 5.6 months", "value": "approx. 168 days"}, {"measurement": "prolongation of time to the onset of clinical signs of congestive heart failure compared to placebo", "setting": "[1]; also printed as 12.0 months", "value": "approx. 359 days"}, {"measurement": "safety and tolerability", "setting": "[2]", "value": "safe and well tolerated"}, {"measurement": "long-term changes in the severity of mitral regurgitation", "setting": "[3]", "value": "failed to identify beneficial long-term changes"}, {"measurement": "adverse effects", "setting": "[4]", "value": "increased mitral valve regurgitation and myocardial hypertrophy"}, {"measurement": "heart size", "setting": "[5]; compared to the placebo group, measured over the first 35 days of the study, P<0.0001", "value": "reduction in heart size"}, {"measurement": "rate or type of potential adverse events", "setting": "[5]; pimobendan group vs placebo group", "value": "no difference between groups"}, {"measurement": "Median time to the primary endpoint", "setting": "[5]; pimobendan group, 95% CI 856—NA, placebo group 766 days, P=0.0038", "value": 1228, "unit": "days"}, {"measurement": "Prolongation of the preclinical period", "setting": "[5]; vs placebo group", "value": "approximately 15 months"}, {"measurement": "Overall survival, as determined by All Cause Mortality", "setting": "[5]; vs placebo group, P=0.012", "value": "significantly longer"}]}]}
